Data: patent US20070232563A1, “Method for Enhancing Biological Activity and/or Expanding Suitable Region for Biological Activity of Living Body Contacting with Aqueous Environment” (Kabushiki Kaisha Hayashibara Seibutsu Kagaku Kenky, priority 2004, published 2007)

Experiments:
[1] = system: colbicula (Corbicula leana); experiment: Biological activity of corbicula (aqueduct extension score) in aqueous mineral solutions; assay type: in vivo
From the text: Influence of various saccharides was judged by observing the degree of extending aqueduct of the shellfish; 3 points: its aqueduct is well extended; 2 points: its aqueduct is slightly extended; 1 point: its aqueduct is not extended but its shells are opened; 0 point: its shells are closed. The effect on biological activity was judged by the total point of 18 shellfishes.
Suitable region for biological activity was examined by using colbicula (Corbicula leana) as fishes and shellfishes living in fresh water in the case of enhancing their biological activity by using aqueous mineral solutions containing various saccharides. In detail, solar salt (85% by weight of sodium chloride and 15% by weight of magnesium) as minerals was dissolved in tap water kept in a container for two days to give final concentrations described in the following Table 4. Saccharide (any one of D-glucose, maltose, sucrose, maltitol, α,α-trehalose, α-maltosyl α,α-trehalose, maltotetraose and cyclic tetrasaccharide) was dissolved in the resulting salt solutions to give a final concentration of 1 w/v %, on a dry solid basis. The resulting each solution was placed in a plastic bat. Eighteen pre-selected active shellfishes in one group were placed in the bat. The bat was shaded with a black cloth and left at ambient temperature (18° C.) for 16 hours. As a control, an aqueous solar salt solution without saccharides was prepared. Biological activity of the shellfish was judged by measuring extend their aqueducts macroscopically in the same manner as in Experiment 1.
Effective concentration range of α,α-trehalose or α-maltosyl α,α-trehalose on enhancing biological activity and/or influencing on suitable region for biological activity of colbicula (Corbicula leana) was determined according to the method of Experiment 4 by examining biological activity of the shellfish in the aqueous mineral solution with a mineral concentration of 1.5 w/v %, where α,α-trehalose or α-maltosyl α,α-trehalose was effective in Experiment 4, containing α,α-trehalose or α-maltosyl α,α-trehalose at a concentration of 0.01, 0.1, 1, 2, 3 or 4 w/v %, on a dry solid basis. As a control, a solution containing 1.5 w/v % of mineral without such saccharides was prepared and treated in the same manner.

[2] = system: crucian (Carassium cuvieri); experiment: Removing fishy smell of freshwater fish: activity and sashimi panel; assay type: in vivo, Carassius cuvieri; settings: macroscopic observation; bred three days; each ingredient 1 (w/v)%
Method: Two per group of living crucian (Carassium cuvieri) with body size in the range of 15 to 20 cm were bred at ambient temperature in an aquarium filled with 10 L of an aqueous solution containing 1 w/v % mineral (solar salt) and 1 w/v % α,α-trehalose or α-maltosyl α,α-trehalose, on a dry solid basis, for three days. Waters containing either of mineral, α,α-trehalose or α-maltosyl α,α-trehalose as references and water without any mineral and saccharides as a control were prepared to breed the fishes similarly as above. The fishes were macroscopically observed their activity, and then prepated into sashimi. Twenty panels were allowed to taste them to judge their flavor and taste (fishy smell) in such a manner of comparing with references by the following four judgment criterions; “good”: no fishy smell; “slightly good”: fishy smell is weaker than the references; “normal”: fishy smell is equal to the references; and “bad”: fishy smell is stronger than the references.

alfalfa = experiment: Cultivation of sprout food (alfalfa) in aqueous mineral solution: stem extension, flavor and taste panel; assay type: in vivo; settings: aerial part (stem) height vs water control; each ingredient 1 (w/v)%; three days, 18° C.
From the text: Absorbent cotton was allowed to absorb aqueous solution containing on a dry solid basis 1 w/v % of mineral (sodium chloride) and 1 w/v % of α,α-trehalose or α-maltosyl α,α-trehalose and placed in a transparent container. One hundred per group commercialized alfalfa seeds were placed in the container. As references, waters containing either of mineral, α,α-trehalose or α-maltosyl α,α-trehalose were used. As a control, water was used. After covered with a transparent lid, the container was placed in a room under a borrowed light at 18° C. for three days to cultivate alfalfa. The grown alfalfa plants were measured to calculate average value of aerial part (stem) height. Relative extension rate was calculated in such a manner of comparing the average value of each sample with that of control. In addition, 20 panels were judged in view of flavor and taste in such a manner of comparing each sample with control cultivated in water.

[3] = system: gold fish (Japanese gold fish, Carassius auratus) with columnaris disease; experiment: Treatment for a disease of gold fish (columnaris disease); assay type: in vivo; settings: bred one week, each ingredient 1 (w/v)%; for Treatment effect: columnaris disease; for Activity of gold fish: macroscopic observation
Method: One per group of gold fish (Japanese gold fish, Carassius auratus) with columnaris disease was bred in an aquarium filled with 2 L of aqueous solution containing 1 w/v % mineral and 1 w/v % α,α-trehalose or α-maltosyl α,α-trehalose at ambient temperature with normal feed for one week. Waters containing either of mineral, α,α-trehalose or α-maltosyl α,α-trehalose as references and water as a control were prepared to breed similarly as above. The fishes were macroscopically observed their activity and treatment effect.

[4] = Experiment 5, mineral 1.5 w/v %, saccharide 0.01 w/v %
[5] = Experiment 5, mineral 1.5 w/v %, saccharide 0.1 w/v %
[6] = Experiment 5, mineral 1.5 w/v %, saccharide 1 w/v %
[7] = Experiment 5, mineral 1.5 w/v %, saccharide 2 w/v %
[8] = Experiment 5, mineral 1.5 w/v %, saccharide 3 w/v %
[9] = Experiment 5, mineral 1.5 w/v %, saccharide 4 w/v %
[10] = mineral concentration 0, saccharide 1 w/v %, total of 18 shellfishes, 16 h
[11] = mineral concentration 0.5, saccharide 1 w/v %, total of 18 shellfishes, 16 h
[12] = mineral concentration 1.0, saccharide 1 w/v %, total of 18 shellfishes, 16 h
[13] = mineral concentration 1.5, saccharide 1 w/v %, total of 18 shellfishes, 16 h
[14] = mineral concentration 2.0, saccharide 1 w/v %, total of 18 shellfishes, 16 h
[15] = mineral concentration 2.5, saccharide 1 w/v %, total of 18 shellfishes, 16 h
[16] = mineral concentration 3.0, saccharide 1 w/v %, total of 18 shellfishes, 16 h

OC[C@H]1O[C@H](O[C@H]2O[C@H](CO)[C@@H](O)[C@H](O)[C@H]2O)[C@H](O)[C@@H](O)[C@@H]1O [α,α-Trehalose, α,α-trehalose] was tested, and the “Judgment score of biological activity” value [1, 4] was 21, the “Judgment score of biological activity” value [1, 5] was 39 and the “Judgment score of biological activity” value [1, 6] was 52. The “Judgment score of biological activity” value [1, 7] was 48, the “Judgment score of biological activity” value [1, 8] was 39 and the “Judgment score of biological activity” value [1, 9] was 25. The “Judgment score of biological activity” value [1, 10] was 54, the “Judgment score of biological activity” value [1, 11] was 53 and the “Judgment score of biological activity” value [1, 12] was 52. For the same compound, the “Judgment score of biological activity” value [1, 13] was 49, the “Judgment score of biological activity” value [1, 14] was 42 and the “Judgment score of biological activity” value [1, 15] was 20. For the same compound, the “Judgment score of biological activity” value [1, 16] was 6, the “Activity of Carassius cuvieri” value [2] was “Good” and the “Relative extension (%)” value (alfalfa) was 101%. The Treatment effect [3] was “Bad” and the “Activity of gold fish” value [3] was “Good”.
For OC[C@H]1O[C@H](O[C@H]2O[C@H](CO)[C@@H](O[C@H]3O[C@H](CO)[C@@H](O[C@H]4O[C@H](CO)[C@@H](O)[C@H](O)[C@H]4O)[C@H](O)[C@H]3O)[C@H](O)[C@H]2O)[C@H](O)[C@@H](O)[C@@H]1O [α-Maltosyl α,α-trehalose, α-maltosyl α,α-trehalose], the “Judgment score of biological activity” value [1, 4] was 19, the “Judgment score of biological activity” value [1, 5] was 35 and the “Judgment score of biological activity” value [1, 6] was 45. The “Judgment score of biological activity” value [1, 7] was 41, the “Judgment score of biological activity” value [1, 8] was 34 and the “Judgment score of biological activity” value [1, 9] was 21. For the same compound, the “Judgment score of biological activity” value [1, 10] was 54, the “Judgment score of biological activity” value [1, 11] was 53 and the “Judgment score of biological activity” value [1, 12] was 45. The “Judgment score of biological activity” value [1, 13] was 44, the “Judgment score of biological activity” value [1, 14] was 37 and the “Judgment score of biological activity” value [1, 15] was 24. For the same compound, the “Judgment score of biological activity” value [1, 16] was 4, the “Activity of Carassius cuvieri” value [2] was “Good” and the “Relative extension (%)” value (alfalfa) was 105%. The Treatment effect [3] was “Bad” and the “Activity of gold fish” value [3] was “Good”.
